From patent US20230085307A1, “PYRIDAZINONE COMPOUND AND HERBICIDE” (NISSAN CHEMICAL CORPORATION, priority 2019, published 2023)

Key:
green foxtail [1] = assay: Test Example 5: herbicidal effect by foliage application, plastic box (Table 20, symbol G); format: in vivo, green foxtail (Setaria viridis); conditions: foliage application, 320 g/ha, three weeks after application
Summary of the method: (§1)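 Plants sown in sterilized diluvial soil and grown 14 days in a greenhouse at 25° C to 30° C, then sprayed on the foliage with the compound's emulsion diluted in water to a predetermined herbicide amount. Injury to weeds and crops scored three weeks after application on a visual rating scale.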

persian speedwell [2] = assay: Test Example 5: herbicidal effect by foliage application, plastic box (Table 20, symbol R); format: in vivo, Persian speedwell (Veronica persica); conditions: foliage application, 320 g/ha, three weeks after application
Summary of the method: as §1

windgrass [3] = assay: Test Example 5: herbicidal effect by foliage application, plastic box (Table 20, symbol L); format: in vivo, windgrass (Apera spica-venti); conditions: foliage application, 320 g/ha, three weeks after application
Summary of the method: as §1

false cleavers = assay: Test Example 4: herbicidal effect by soil treatment (Table 19, symbol Q); format: in vivo, false cleavers (Galium spurium); conditions: amount of applied herbicide 320 g/ha
Summary of the method: (§2)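 Three weeks of greenhouse growth at 25° C. to 30° C. followed a uniform surface spray of water-diluted emulsion at a predetermined herbicide amount. Seeds had been sown beforehand under about 1.5 cm of sterilized diluvial soil. Grading followed criteria set out in an earlier test.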

Italian ryegrass [4] = assay: Test Example 4: herbicidal effect by soil treatment (Table 19, symbol K); format: in vivo, Italian ryegrass (Lolium multiflorum); conditions: amount of applied herbicide 320 g/ha
Summary of the method: as §2

Chinese sprangletop = assay: Test Example 3: herbicidal effect by foliage application, Wagner pot (Table 18, symbol D); format: in vivo, chinese sprangletop (Leptochloa chinensis); conditions: amount of applied herbicide 320 g/ha
Summary of the method: (§3)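 Plants were sown in alluvial soil held under 0.1–0.5 cm standing water and grown 14 days in a greenhouse at 25–30 °C. An emulsifiable formulation, water-diluted to the set dose, was then sprayed onto the foliage, and effects were scored three weeks later using previously defined criteria.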

blackgrass [5] = assay: Test Example 5: herbicidal effect by foliage application, plastic box (Table 20, symbol J); format: in vivo, blackgrass (Alopecurus myosuroides); conditions: foliage application, 320 g/ha, three weeks after application
Summary of the method: as §1

lambsquarters [6] = assay: Test Example 4: herbicidal effect by soil treatment (Table 19, symbol O); format: in vivo, lambsquarters (Chenopodium album); conditions: amount of applied herbicide 320 g/ha
Summary of the method: as §2

redroot pigweed = assay: Test Example 4: herbicidal effect by soil treatment (Table 19, symbol N); format: in vivo, redroot pigweed (Amaranthus retroflexus); conditions: amount of applied herbicide 320 g/ha
Summary of the method: as §2

Italian ryegrass [7] = assay: Test Example 5: herbicidal effect by foliage application, plastic box (Table 20, symbol K); format: in vivo, Italian ryegrass (Lolium multiflorum); conditions: foliage application, 320 g/ha, three weeks after application
Summary of the method: as §1

barnyard grass [8] = assay: Test Example 4: herbicidal effect by soil treatment (Table 19, symbol H); format: in vivo, barnyard grass (Echinochloa crus-galli); conditions: amount of applied herbicide 320 g/ha
Summary of the method: as §2

late watergrass = assay: Test Example 1: herbicidal activity, application before weed generation under submerged conditions (Table 16, symbol A); format: in vivo, late watergrass (Echinochloa oryzicola); conditions: amount of applied herbicide 320 g/ha
Summary of the method: (§4)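 Emulsion formulation, water-diluted to set dose, was put onto the flooded surface (4 cm depth, alluvial soil) the same day weeds were sown and 2.5-leaf rice transplanted. After 3 weeks at 25-30 °C under glass, each species was rated 0 (≤5% kill) to 5 (≥90% kill).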

velvetleaf [9] = assay: Test Example 4: herbicidal effect by soil treatment (Table 19, symbol M); format: in vivo, velvetleaf (Abutilon theophrasti); conditions: amount of applied herbicide 320 g/ha
Summary of the method: as §2

lambsquarters [10] = assay: Test Example 5: herbicidal effect by foliage application, plastic box (Table 20, symbol O); format: in vivo, lambsquarters (Chenopodium album); conditions: foliage application, 320 g/ha, three weeks after application
Summary of the method: as §1

rice flat sedge = assay: Test Example 3: herbicidal effect by foliage application, Wagner pot (Table 18, symbol E); format: in vivo, rice flat sedge (Cyperus iria); conditions: amount of applied herbicide 320 g/ha
Summary of the method: as §3

barnyard grass [11] = assay: Test Example 3: herbicidal effect by foliage application, Wagner pot (Table 18, symbol H); format: in vivo, barnyard grass (Echinochloa crus-galli); conditions: amount of applied herbicide 320 g/ha
Summary of the method: as §3

wild oat [12] = assay: Test Example 4: herbicidal effect by soil treatment (Table 19, symbol I); format: in vivo, wild oat (Avena fatua); conditions: amount of applied herbicide 320 g/ha
Summary of the method: as §2

oval-leafed pondweed = assay: Test Example 1: herbicidal activity, application before weed generation under submerged conditions (Table 16, symbol C); format: in vivo, oval-leafed pondweed (Monochoria vaginalis); conditions: amount of applied herbicide 320 g/ha
Summary of the method: as §4

blackgrass [13] = assay: Test Example 4: herbicidal effect by soil treatment (Table 19, symbol J); format: in vivo, blackgrass (Alopecurus myosuroides); conditions: amount of applied herbicide 320 g/ha
Summary of the method: as §2

southern crabgrass [14] = assay: Test Example 5: herbicidal effect by foliage application, plastic box (Table 20, symbol F); format: in vivo, southern crabgrass (Digitaria ciliaris); conditions: foliage application, 320 g/ha, three weeks after application
Summary of the method: as §1

green foxtail [15] = assay: Test Example 4: herbicidal effect by soil treatment (Table 19, symbol G); format: in vivo, green foxtail (Setaria viridis); conditions: amount of applied herbicide 320 g/ha
Summary of the method: as §2

wild oat [16] = assay: Test Example 5: herbicidal effect by foliage application, plastic box (Table 20, symbol I); format: in vivo, wild oat (Avena fatua); conditions: foliage application, 320 g/ha, three weeks after application
Summary of the method: as §1

southern crabgrass [17] = assay: Test Example 4: herbicidal effect by soil treatment (Table 19, symbol F); format: in vivo, southern crabgrass (Digitaria ciliaris); conditions: amount of applied herbicide 320 g/ha
Summary of the method: as §2

Japanese bulrush = assay: Test Example 1: herbicidal activity, application before weed generation under submerged conditions (Table 16, symbol B); format: in vivo, Japanese bulrush (Schoenoplectus juncoides); conditions: amount of applied herbicide 320 g/ha
Summary of the method: as §4

persian speedwell [18] = assay: Test Example 4: herbicidal effect by soil treatment (Table 19, symbol R); format: in vivo, Persian speedwell (Veronica persica); conditions: amount of applied herbicide 320 g/ha
Summary of the method: as §2

velvetleaf [19] = assay: Test Example 5: herbicidal effect by foliage application, plastic box (Table 20, symbol M); format: in vivo, velvetleaf (Abutilon theophrasti); conditions: foliage application, 320 g/ha, three weeks after application
Summary of the method: as §1

barnyard grass [20] = assay: Test Example 5: herbicidal effect by foliage application, plastic box (Table 20, symbol H); format: in vivo, barnyard grass (Echinochloa crus-galli); conditions: foliage application, 320 g/ha, three weeks after application
Summary of the method: as §1

windgrass [21] = assay: Test Example 4: herbicidal effect by soil treatment (Table 19, symbol L); format: in vivo, windgrass (Apera spica-venti); conditions: amount of applied herbicide 320 g/ha
Summary of the method: as §2

chickweed = assay: Test Example 4: herbicidal effect by soil treatment (Table 19, symbol P); format: in vivo, common chickweed (Stellaria media); conditions: amount of applied herbicide 320 g/ha
Summary of the method: as §2

Cc1nn(C)c(=O)c(-c2c(-c3ccc(OC(F)F)cc3)oc3ccc(F)cc23)c1O [9-031]
herbicidal effect on green foxtail (G) (green foxtail [1]): 5 (Herbicidal rate of 90% or more (almost completely withered)) | herbicidal effect on persian speedwell (R) (persian speedwell [2]): 5 (Herbicidal rate of 90% or more (almost completely withered)) | herbicidal effect on windgrass (L) (windgrass [3]): 4 (Herbicidal rate of 70% or more and less than 90%) | Q: false cleavers, herbicidal effect grade (false cleavers): 3 (Herbicidal rate of 40% or more and less than 70%) | K: Italian ryegrass, herbicidal effect grade (Italian ryegrass [4]): 5 (Herbicidal rate of 90% or more (almost completely withered)) | Herbicidal effect on D (Chinese sprangletop), foliage application (Chinese sprangletop): 1 (Herbicidal rate of 5% or more and less than 20%) | herbicidal effect on blackgrass (J) (blackgrass [5]): 4 (Herbicidal rate of 70% or more and less than 90%) | O: lambsquarters, herbicidal effect grade (lambsquarters [6]): 3 (Herbicidal rate of 40% or more and less than 70%) | N: redroot pigweed, herbicidal effect grade (redroot pigweed): 5 (Herbicidal rate of 90% or more (almost completely withered)) | herbicidal effect on Italian ryegrass (K) (Italian ryegrass [7]): 5 (Herbicidal rate of 90% or more (almost completely withered)) | H: barnyard grass, herbicidal effect grade (barnyard grass [8]): 4 (Herbicidal rate of 70% or more and less than 90%) | Herbicidal effect, A: late watergrass (late watergrass): 2 (Herbicidal rate of 20% or more and less than 40%) | M: velvetleaf, herbicidal effect grade (velvetleaf [9]): 2 (Herbicidal rate of 20% or more and less than 40%) | herbicidal effect on lambsquarters (O) (lambsquarters [10]): 5 (Herbicidal rate of 90% or more (almost completely withered)) | Herbicidal effect on E (rice flat sedge), foliage application (rice flat sedge): 5 (Herbicidal rate of 90% or more (almost completely withered)) | Herbicidal effect on H (barnyard grass), foliage application (barnyard grass [11]): 5 (Herbicidal rate of 90% or more (almost completely withered)) | I: wild oat, herbicidal effect grade (wild oat [12]): 0 (Herbicidal rate of 5% or less (almost no effect)) | Herbicidal effect, C: oval-leafed pondweed (oval-leafed pondweed): 0 (Herbicidal rate of 5% or less (almost no effect)) | J: blackgrass, herbicidal effect grade (blackgrass [13]): 0 (Herbicidal rate of 5% or less (almost no effect)) | herbicidal effect on southern crabgrass (F) (southern crabgrass [14]): 4 (Herbicidal rate of 70% or more and less than 90%) | G: green foxtail, herbicidal effect grade (green foxtail [15]): 4 (Herbicidal rate of 70% or more and less than 90%) | herbicidal effect on wild oat (I) (wild oat [16]): 4 (Herbicidal rate of 70% or more and less than 90%) | F: southern crabgrass, herbicidal effect grade (southern crabgrass [17]): 4 (Herbicidal rate of 70% or more and less than 90%) | Herbicidal effect, B: Japanese bulrush (Japanese bulrush): 0 (Herbicidal rate of 5% or less (almost no effect)) | R: persian speedwell, herbicidal effect grade (persian speedwell [18]): 5 (Herbicidal rate of 90% or more (almost completely withered)) | herbicidal effect on velvetleaf (M) (velvetleaf [19]): 5 (Herbicidal rate of 90% or more (almost completely withered)) | herbicidal effect on barnyard grass (H) (barnyard grass [20]): 4 (Herbicidal rate of 70% or more and less than 90%) | L: windgrass, herbicidal effect grade (windgrass [21]): 4 (Herbicidal rate of 70% or more and less than 90%) | P: chickweed, herbicidal effect grade (chickweed): 4 (Herbicidal rate of 70% or more and less than 90%)
